Reference: patent US6673783B2, “Fusidic acid derivatives” (Leo Pharmaceutical Products Ltd. A/S, priority 2001, dated 2004)
In brackets after ≈: the same amount, converted by molar mass.

Experiments:
S. aureus ATCC 29213 = test: MIC, agar diffusion method, S. aureus ATCC 29213; assay type: cell-based; settings: for MIC: Staphylococcus aureus, ATCC29213, read-out: MIC value (concentration in μg/ml required for 90% inhibition)
Text: (§1) In vitro investigations have evidenced high potency of compounds of the invention against several bacteria including Staphylococci, Streptococci, Corynebacteriae, Mycobacteriae and Neisseriae. […] The potency of new fusidic acid analogues are estimated by comparing the inhibition of growth of different microorganisms produced by known concentrations of the analogue to be examined and a reference like fusidic acid. The microbiological assay set up is in agreement with the European Pharmacopoeia 3rd edition (1997). It is an agar diffusion method where the same volume of the tested solution is added to cavities in agar. The inhibition zones are function of the concentration of the fusidic acid analogue used. All assays are run with fusidic acid as reference substance. [drawing 7]

[1] = test system: Str. salvarius LEO-ID EG7; test: MIC, agar diffusion method, Str. salvarius LEO-ID EG7; assay type: cell-based; settings: for MIC: read-out: MIC value (concentration in μg/ml required for 90% inhibition)
Text: as §1

S. aureus CJ234 (R) = test: MIC, agar diffusion method, S. aureus CJ234 (R) (MRSA and Rifampicin resistant); assay type: cell-based; settings: for MIC: Staphylococcus aureus, read-out: MIC value (concentration in μg/ml required for 90% inhibition)
Text: as §1

S. aureus CJ232 = test: MIC, agar diffusion method, S. aureus CJ232 (MRSA); assay type: cell-based; settings: for MIC: Staphylococcus aureus, read-out: MIC value (concentration in μg/ml required for 90% inhibition)
Text: as §1

Str. pyrogenes NCTC8304 = test: MIC, agar diffusion method, Str. pyrogenes NCTC8304; assay type: cell-based; settings: for MIC: read-out: MIC value (concentration in μg/ml required for 90% inhibition)
Text: as §1

Str. sp. ATCC12449 = test: MIC, agar diffusion method, Str. sp. ATCC12449; assay type: cell-based; settings: for MIC: read-out: MIC value (concentration in μg/ml required for 90% inhibition)
Text: as §1

Str. sp. Leo id: EF6 = test: MIC, agar diffusion method, Str. sp. Leo id: EF6; assay type: cell-based; settings: for MIC: read-out: MIC value (concentration in μg/ml required for 90% inhibition)
Text: as §1

[2] = test system: several bacteria including Staphylococci, Streptococci, Corynebacteriae, Mycobacteriae and Neisseriae; test: In vitro antibacterial activity, agar diffusion with fusidic acid as reference; assay type: cell-based; settings: biological tests, see Table 1
Text: as §1

S. aureus ATC6538P = test: MIC, agar diffusion method, S. aureus ATC6538P; assay type: cell-based; settings: for MIC: Staphylococcus aureus, read-out: MIC value (concentration in μg/ml required for 90% inhibition)
Text: as §1

[3] = test system: Str. pyrogenes Leo id: EC5; test: MIC, agar diffusion method, Str. pyrogenes Leo id: EC5; assay type: cell-based; settings: for MIC: read-out: MIC value (concentration in μg/ml required for 90% inhibition)
Text: as §1

Str.mitis Leo id: EG5 = test: MIC, agar diffusion method, Str.mitis Leo id: EG5; assay type: cell-based; settings: for MIC: Streptococcus mitis, read-out: MIC value (concentration in μg/ml required for 90% inhibition)
Text: as §1

[4] = test system: Str. faecium Leo-id: E119(P); test: MIC, agar diffusion method, Str. faecium Leo-id: E119(P) (penicillin resistant); assay type: cell-based; settings: for MIC: Enterococcus faecium, read-out: MIC value (concentration in μg/ml required for 90% inhibition)
Text: as §1

S. epidermidis ATCC12228 = test: MIC, agar diffusion method, S. epidermidis ATCC12228; assay type: cell-based; settings: for MIC: Staphylococcus epidermidis, read-out: MIC value (concentration in μg/ml required for 90% inhibition)
Text: as §1

bacteria = settings: reduction of C-24/C-25 and C-17/C-20 double bonds of fusidic acid; von Daehne et al. 1979; cited from earlier work

Compound | MIC value (concentration in μg/ml required for 90% inhibition) (S. aureus ATCC 29213) [µg/mL] | MIC value (concentration in μg/ml required for 90% inhibition) [1] [µg/mL] | MIC value (concentration in μg/ml required for 90% inhibition) (S. aureus CJ232) [µg/mL] | MIC value (concentration in μg/ml required for 90% inhibition) (Str. pyrogenes NCTC8304) [µg/mL] | MIC value (concentration in μg/ml required for 90% inhibition) (Str. sp. ATCC12449) [µg/mL] | MIC value (concentration in μg/ml required for 90% inhibition) (Str. sp. Leo id: EF6) [µg/mL] | MIC value (concentration in μg/ml required for 90% inhibition) (S. aureus ATC6538P) [µg/mL] | MIC value (concentration in μg/ml required for 90% inhibition) [3] [µg/mL] | MIC value (concentration in μg/ml required for 90% inhibition) (Str.mitis Leo id: EG5) [µg/mL] | MIC value (concentration in μg/ml required for 90% inhibition) [4] [µg/mL] | MIC value (concentration in μg/ml required for 90% inhibition) (S. epidermidis ATCC12228) [µg/mL] | also measured
CC(=O)O[C@H]1C[C@@]2(C)C(CC(O)[C@@H]3C2(C)CCC2C(C)C(O)CC[C@@]23C)C12CC2(CCC=C(C)C)C(=O)O (stereo partly drawn) [Compound 101, 17S,20S-Methanofusidic acid] | – | – | – | – | – | – | – | – | – | – | – | MIC (S. aureus ATCC 29213): 0.125 µg/mL (≈ 0.236 µM); melting point: 243 to 245 °C; MIC [1]: 4 µg/mL (≈ 7.54 µM); MIC (S. aureus CJ234 (R)): 0.004 µg/mL (≈ 0.00754 µM); MIC (S. aureus CJ232): 0.125 µg/mL (≈ 0.236 µM); MIC (Str. pyrogenes NCTC8304): 4 µg/mL (≈ 7.54 µM); MIC (Str. sp. ATCC12449): 16 µg/mL (≈ 30.1 µM); MIC (Str. sp. Leo id: EF6): 4 µg/mL (≈ 7.54 µM); antibacterial activity compared to that of fusidic acid (1) [2]: comparable antibacterial activity; MIC (S. aureus ATC6538P): 0.125 µg/mL (≈ 0.236 µM); MIC [3]: 16 µg/mL (≈ 30.1 µM); MIC (Str.mitis Leo id: EG5): 4 µg/mL (≈ 7.54 µM); MIC [4]: 0.125 µg/mL (≈ 0.236 µM); MIC (S. epidermidis ATCC12228): 0.125 µg/mL (≈ 0.236 µM)
CC(=O)OC1CC2(C)C(CC(O)C3C4(C)CCC(O)C(C)C4CCC32C)C12CC2(CCCC(C)C)C(=O)O (stereo not drawn) [Compound 102, 24,25-Dihydro-17S,20S-methanofusidic acid] | 0.25 | 16 | 0.25 | 16 | 64 | 64 | 0.125 | 64 | 64 | 1 | 0.125 | MIC value (concentration in μg/ml required for 90% inhibition) (S. aureus CJ234 (R)): 0.25 µg/mL
CC(=O)OC1CC2(C)C(CC(O)C3C4(C)CCC(=O)C(C)C4CCC32C)C12CC2(CCC=C(C)C)C(=O)O (stereo not drawn) [Compound 104, 3-Dehydro-17S,20S-methanofusidic acid] | 0.125 | 64 | 1.0 | 16 | 64 | 64 | 0.125 | 64 | 64 | 0.25 | 0.125 | –
CC(C)=CCCC1(C(=O)O)CC12C(OC(=O)C(C)C)CC1(C)C2CC(O)C2C3(C)CCC(O)C(C)C3CCC21C (stereo not drawn) [Compound 107, 16-Deacetoxy-16β-(isopropionyloxy)-17S,20S-methanofusidic acid] | 1.0 | 64 | 1.0 | 64 | 64 | 16 | 0.25 | 64 | 16 | 4 | 0.25 | –
CCOC1CC2(C)C(CC(O)C3C4(C)CCC(O)C(C)C4CCC32C)C12CC2(CCC=C(C)C)C(=O)O (stereo not drawn) [Compound 110, 16-Deacetoxy-16β-ethoxy-17S,20S-methanofusidic acid] | 0.125 | 64 | 1.0 | 4 | 64 | 64 | 0.125 | 64 | 64 | 0.25 | 0.125 | MIC value (concentration in μg/ml required for 90% inhibition) (S. aureus CJ234 (R)): 0.004 µg/mL
CC(=O)O[C@H]1C[C@@]2(C)C(CC(O)[C@@H]3C2(C)CCC2C(C)C(O)CC[C@@]23C)/C1=C(\CCC=C(C)C)C(=O)O (stereo partly shown) [Fusidic acid (1), fusidic acid] | – | – | – | – | – | – | – | – | – | – | – | MIC (S. aureus ATCC 29213): 0.125 µg/mL (≈ 0.242 µM); MIC [1]: 4 µg/mL (≈ 7.74 µM); MIC (S. aureus CJ234 (R)): 0.004 µg/mL (≈ 0.00774 µM); MIC (S. aureus CJ232): 0.125 µg/mL (≈ 0.242 µM); MIC (Str. pyrogenes NCTC8304): 4 µg/mL (≈ 7.74 µM); MIC (Str. sp. ATCC12449): 4 µg/mL (≈ 7.74 µM); MIC (Str. sp. Leo id: EF6): 4 µg/mL (≈ 7.74 µM); MIC (S. aureus ATC6538P): 0.125 µg/mL (≈ 0.242 µM); MIC [3]: 4 µg/mL (≈ 7.74 µM); MIC (Str.mitis Leo id: EG5): 4 µg/mL (≈ 7.74 µM); MIC [4]: 0.125 µg/mL (≈ 0.242 µM); MIC (S. epidermidis ATCC12228): 0.125 µg/mL (≈ 0.242 µM)
tetrahydrofusidic acid | – | – | – | – | – | – | – | – | – | – | – | antibacterial activity (bacteria): almost complete loss of activity
